{
  "source": "patent US20040115804A1",
  "about": "“Cell system for generating somatic cells” (priority 2002, published 2004)",
  "key": {"[1]": {"test_system": "umbilical mesenchymal cells", "assay": "Transformation of umbilical mesenchymal cells into neurons with BME (NF and NeuN immunostaining)", "format": "cell-based, human", "conditions": "2 mM BME, 72 hours", "from_the_text": "Neurofilament (NF) is the major cytoskeleton in neurons, which is responsible for adjusting the size, appearance and diameter of dendrites of neurons. Only neurons at the late developmental stage or mature neurons express NF. Immunostaining for NF is utilized to recognize neurons at the late stage.\nNeuron-specific nuclear protein (NeuN) is a specific protein existing in the nucleus of neurons in the central nervous system of vertebrates. NeuN binds to DNA in vitro. It is known that NeuN appears earlier than NF during the development of neurons. Therefore, immunostaining for NeuN is utilized to identify neurons at the early stage of transformation.\nUmbilical mesenchymal cells obtained in Example 1 were cultured in 10% FBS-DMEM for 72 hours. Two mM BME was added to the culture and the cells continued to be cultured for 72 hours."}, "BMSCs": {"test_system": "BMSCs", "conditions": "in vitro culture of BMSCs; cited from earlier work"}, "[2]": {"conditions": "unsuitable for use in human bodies; cited from earlier work"}, "[3]": {"test_system": "haematopoietic stem cells of umbilical cord blood", "conditions": "cultured in 0.001% of β-Mercaptoethanol; cited from earlier work"}, "[4]": {"test_system": "umbilical mesenchymal cells", "assay": "Cardiac troponin I / F-actin immunocytochemistry after cardiac differentiation", "format": "cell-based, human", "conditions": "3 μM 5-azacytidine for 24 hours, then growing medium 1-3 weeks", "procedure": "Umbilical mesenchymal cells obtained in Example 1 were cultured in a cell growing medium of DMEM supplemented with about 4.5 g/L of glucose and about 10% FBS. After the cells have attached to the bottom of the cell culture plate, the cell growing medium was then replaced by a cell differentiating medium, which was prepared by supplementing the cell growing medium with 3 μM 5-azacytidine as a cell differentiating factor. Alternatively, the cell differentiating factor may be directly added to the culture.\nThe umbilical mesenchymal cells were cultured in the cell differentiating medium for 24 hours. The cell differentiating medium was then replaced by the cell growing medium to prevent intoxication of the cells caused by the long exposure to 5-azacytidine. The differentiated cells were further maintained in the cell growing medium for about 1-3 weeks to ensure the viability and optimal differentiation of the cells. The culture medium was replaced with fresh medium every three days. […]\nNext, secondary antibodies conjugated to fluorescence or any visible dyes readily detectable by an optical instrument such as a confocal laser scanning microscope, a fluorescence microscope, or an optical microscope, Rhodamine (TRITC)-conjugated AffiniPure Donkey Anti-Goat IgG (supplied by Jackson ImmunoResearch Lab) were added at a 1:100 dilution to bind the host species of the primary antibodies. […]"}, "[5]": {"test_system": "bone marrow stromal cells", "conditions": "bone marrow stromal cells treated with 5-azacytidine; cited from earlier work"}},
  "data": [
    {"molecule": "OCCS", "note": "[BME, β-mercaptoethanol]", "values": [
      {"measurement": "NF expression (immunostaining)", "setting": "[1]", "value": "expressed NF"},
      {"measurement": "NeuN expression (immunostaining)", "setting": "[1]", "value": "expressed NeuN"},
      {"measurement": "cultured BMSCs induced to differentiate into neurons", "setting": "BMSCs", "value": "about 80%"},
      {"measurement": "toxicity", "setting": "[2]", "value": "toxic for proteins"},
      {"measurement": "transformation of cord blood haematopoietic stem cells", "setting": "[3]", "value": "transformed into precursors of neural cells"}
    ]},
    {"molecule": "Nc1ncn([C@@H]2O[C@H](CO)[C@@H](O)[C@H]2O)c(=O)n1", "note": "[cell differentiating factor, 5-azacytidine]", "values": [
      {"measurement": "F-actin expression, cell attachment pattern", "setting": "[4]", "value": "specific cell attachment pattern similar to that of the cardiomyocytes or cardiovascular cells"},
      {"measurement": "C-troponin I expression", "setting": "[4]; compared to untreated cells", "value": "significant expression of C-troponin I"},
      {"measurement": "ultrastructure by electron microscopy", "setting": "[5]", "value": "cardiomyocyte-like ultrastructure"}
    ]}
  ]
}
